Assay results: patent US12479847B2 (DANA-FARBER CANCER INSTITUTE, INC., priority 2019, dated 2025)

What was measured:
Test in all cases: KINOMEscan (ScanMAX) kinase profiling
Type in all cases: binding
panel of 468 kinases [1] = biological target: T1, panel of 468 kinases (Homo sapiens, UniProt P24723); details: PRKCH; 1 μM; read-out: % control
T1 construct: purchased KINOMEscan (ScanMAX) service

panel of 468 kinases [2] = biological target: T2, panel of 468 kinases (Homo sapiens, UniProt P10721, D816V); details: KIT(D816V); 1 μM; read-out: % control
T2 construct: purchased KINOMEscan (ScanMAX) service
T2 sequence (P10721 26-976 D816V): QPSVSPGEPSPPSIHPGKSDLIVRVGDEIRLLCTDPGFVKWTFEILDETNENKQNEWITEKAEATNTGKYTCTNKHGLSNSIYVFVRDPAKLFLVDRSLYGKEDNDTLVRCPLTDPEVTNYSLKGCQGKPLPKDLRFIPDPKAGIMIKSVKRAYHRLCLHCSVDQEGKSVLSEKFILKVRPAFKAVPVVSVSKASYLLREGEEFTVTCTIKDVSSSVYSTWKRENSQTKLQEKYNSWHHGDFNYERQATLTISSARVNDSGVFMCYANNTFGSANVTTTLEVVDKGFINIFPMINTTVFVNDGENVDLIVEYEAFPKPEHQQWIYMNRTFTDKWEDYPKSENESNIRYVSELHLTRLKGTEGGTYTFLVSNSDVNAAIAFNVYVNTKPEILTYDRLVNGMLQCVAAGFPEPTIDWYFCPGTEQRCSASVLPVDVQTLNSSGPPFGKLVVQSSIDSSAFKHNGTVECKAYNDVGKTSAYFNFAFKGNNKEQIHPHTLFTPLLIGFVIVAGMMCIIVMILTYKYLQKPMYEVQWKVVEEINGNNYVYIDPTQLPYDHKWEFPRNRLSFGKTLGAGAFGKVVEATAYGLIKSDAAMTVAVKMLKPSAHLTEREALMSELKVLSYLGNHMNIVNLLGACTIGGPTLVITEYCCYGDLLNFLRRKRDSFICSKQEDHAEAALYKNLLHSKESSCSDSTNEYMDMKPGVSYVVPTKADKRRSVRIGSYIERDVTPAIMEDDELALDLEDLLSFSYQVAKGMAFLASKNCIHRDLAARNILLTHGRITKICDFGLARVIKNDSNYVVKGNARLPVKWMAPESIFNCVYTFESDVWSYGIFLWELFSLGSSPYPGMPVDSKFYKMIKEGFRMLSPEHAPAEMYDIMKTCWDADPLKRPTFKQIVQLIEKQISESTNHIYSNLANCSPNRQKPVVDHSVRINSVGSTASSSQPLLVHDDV

panel of 468 kinases [3] = biological target: T3, panel of 468 kinases (Homo sapiens, UniProt O00750); details: PIK3C2B; 1 μM; read-out: % control
T3 construct: purchased KINOMEscan (ScanMAX) service
T3 sequence (O00750 whole entry): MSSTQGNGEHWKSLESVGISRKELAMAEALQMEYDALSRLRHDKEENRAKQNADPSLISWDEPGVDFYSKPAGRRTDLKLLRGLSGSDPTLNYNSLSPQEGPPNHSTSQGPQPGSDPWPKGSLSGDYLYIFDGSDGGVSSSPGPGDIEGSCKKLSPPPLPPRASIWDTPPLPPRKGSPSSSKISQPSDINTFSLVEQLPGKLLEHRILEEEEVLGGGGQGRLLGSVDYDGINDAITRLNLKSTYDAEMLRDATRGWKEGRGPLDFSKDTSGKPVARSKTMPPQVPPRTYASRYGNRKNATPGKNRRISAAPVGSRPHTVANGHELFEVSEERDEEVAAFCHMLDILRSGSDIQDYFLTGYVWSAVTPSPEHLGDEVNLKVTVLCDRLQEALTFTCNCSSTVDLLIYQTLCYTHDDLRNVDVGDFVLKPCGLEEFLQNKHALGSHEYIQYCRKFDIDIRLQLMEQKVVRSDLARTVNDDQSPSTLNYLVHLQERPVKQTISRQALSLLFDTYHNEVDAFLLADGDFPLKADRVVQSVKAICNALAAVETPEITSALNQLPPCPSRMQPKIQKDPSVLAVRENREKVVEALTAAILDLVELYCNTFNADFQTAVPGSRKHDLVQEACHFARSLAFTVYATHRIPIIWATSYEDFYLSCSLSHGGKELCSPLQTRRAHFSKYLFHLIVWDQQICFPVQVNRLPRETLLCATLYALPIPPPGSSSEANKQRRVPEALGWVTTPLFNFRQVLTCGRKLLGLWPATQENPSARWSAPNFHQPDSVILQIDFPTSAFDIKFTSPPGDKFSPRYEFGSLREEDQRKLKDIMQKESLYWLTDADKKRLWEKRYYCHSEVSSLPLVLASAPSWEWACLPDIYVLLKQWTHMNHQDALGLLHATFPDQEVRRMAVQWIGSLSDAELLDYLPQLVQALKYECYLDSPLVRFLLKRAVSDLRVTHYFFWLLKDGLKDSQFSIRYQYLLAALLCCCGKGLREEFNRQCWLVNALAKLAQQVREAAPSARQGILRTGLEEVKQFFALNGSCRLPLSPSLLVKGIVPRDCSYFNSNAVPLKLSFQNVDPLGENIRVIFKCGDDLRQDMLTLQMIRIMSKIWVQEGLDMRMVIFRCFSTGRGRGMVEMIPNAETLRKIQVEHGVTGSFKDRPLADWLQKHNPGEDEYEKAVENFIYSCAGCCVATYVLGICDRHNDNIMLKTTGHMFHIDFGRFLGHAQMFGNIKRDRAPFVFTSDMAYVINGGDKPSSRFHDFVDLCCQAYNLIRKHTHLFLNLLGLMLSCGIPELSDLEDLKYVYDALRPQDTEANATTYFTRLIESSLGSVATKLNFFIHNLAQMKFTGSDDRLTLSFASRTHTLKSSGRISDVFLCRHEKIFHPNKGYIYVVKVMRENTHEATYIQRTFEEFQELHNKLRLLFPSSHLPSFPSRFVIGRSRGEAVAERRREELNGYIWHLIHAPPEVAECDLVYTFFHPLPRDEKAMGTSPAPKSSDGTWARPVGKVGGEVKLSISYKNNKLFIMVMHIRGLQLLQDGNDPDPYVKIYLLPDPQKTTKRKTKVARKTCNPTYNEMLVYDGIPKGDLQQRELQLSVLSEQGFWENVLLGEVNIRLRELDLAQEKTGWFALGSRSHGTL

panel of 468 kinases [4] = biological target: T4, panel of 468 kinases (Homo sapiens, UniProt P41743); details: PRKCI; 1 μM; read-out: % control
T4 construct: purchased KINOMEscan (ScanMAX) service
T4 sequence (P41743 1-596): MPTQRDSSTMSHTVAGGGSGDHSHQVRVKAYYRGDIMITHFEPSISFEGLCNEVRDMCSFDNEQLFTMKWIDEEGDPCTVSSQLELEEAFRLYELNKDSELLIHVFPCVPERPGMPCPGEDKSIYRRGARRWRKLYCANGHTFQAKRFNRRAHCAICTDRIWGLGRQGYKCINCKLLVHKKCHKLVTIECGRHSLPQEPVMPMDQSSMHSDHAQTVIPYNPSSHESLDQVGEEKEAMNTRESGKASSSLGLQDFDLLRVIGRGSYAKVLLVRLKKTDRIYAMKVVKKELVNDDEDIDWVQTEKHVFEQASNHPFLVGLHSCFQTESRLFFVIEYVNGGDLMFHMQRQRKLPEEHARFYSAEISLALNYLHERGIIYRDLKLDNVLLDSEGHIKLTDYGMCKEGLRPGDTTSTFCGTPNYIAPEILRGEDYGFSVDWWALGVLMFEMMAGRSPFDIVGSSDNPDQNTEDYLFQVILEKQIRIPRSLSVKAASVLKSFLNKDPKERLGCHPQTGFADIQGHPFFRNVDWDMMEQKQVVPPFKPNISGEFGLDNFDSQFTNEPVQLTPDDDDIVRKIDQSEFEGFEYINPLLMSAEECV

panel of 468 kinases [5] = biological target: T5, panel of 468 kinases (Homo sapiens, UniProt Q86YV6); details: MYLK4; 1 μM; read-out: % control
T5 construct: purchased KINOMEscan (ScanMAX) service
T5 sequence (Q86YV6 1-388): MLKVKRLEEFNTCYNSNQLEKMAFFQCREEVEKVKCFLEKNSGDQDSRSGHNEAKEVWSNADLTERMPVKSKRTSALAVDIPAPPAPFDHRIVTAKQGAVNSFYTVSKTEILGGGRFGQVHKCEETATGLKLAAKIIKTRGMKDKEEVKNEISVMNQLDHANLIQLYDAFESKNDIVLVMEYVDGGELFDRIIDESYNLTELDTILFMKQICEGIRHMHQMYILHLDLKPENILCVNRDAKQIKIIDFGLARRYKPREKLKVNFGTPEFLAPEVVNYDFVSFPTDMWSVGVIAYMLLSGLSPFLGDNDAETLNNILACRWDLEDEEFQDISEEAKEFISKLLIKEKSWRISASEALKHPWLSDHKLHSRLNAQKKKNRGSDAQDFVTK

panel of 468 kinases [6] = biological target: T6, panel of 468 kinases (Homo sapiens, UniProt P80192); details: MLK1; 1 μM; read-out: % control
T6 construct: purchased KINOMEscan (ScanMAX) service
T6 sequence (P80192 whole entry): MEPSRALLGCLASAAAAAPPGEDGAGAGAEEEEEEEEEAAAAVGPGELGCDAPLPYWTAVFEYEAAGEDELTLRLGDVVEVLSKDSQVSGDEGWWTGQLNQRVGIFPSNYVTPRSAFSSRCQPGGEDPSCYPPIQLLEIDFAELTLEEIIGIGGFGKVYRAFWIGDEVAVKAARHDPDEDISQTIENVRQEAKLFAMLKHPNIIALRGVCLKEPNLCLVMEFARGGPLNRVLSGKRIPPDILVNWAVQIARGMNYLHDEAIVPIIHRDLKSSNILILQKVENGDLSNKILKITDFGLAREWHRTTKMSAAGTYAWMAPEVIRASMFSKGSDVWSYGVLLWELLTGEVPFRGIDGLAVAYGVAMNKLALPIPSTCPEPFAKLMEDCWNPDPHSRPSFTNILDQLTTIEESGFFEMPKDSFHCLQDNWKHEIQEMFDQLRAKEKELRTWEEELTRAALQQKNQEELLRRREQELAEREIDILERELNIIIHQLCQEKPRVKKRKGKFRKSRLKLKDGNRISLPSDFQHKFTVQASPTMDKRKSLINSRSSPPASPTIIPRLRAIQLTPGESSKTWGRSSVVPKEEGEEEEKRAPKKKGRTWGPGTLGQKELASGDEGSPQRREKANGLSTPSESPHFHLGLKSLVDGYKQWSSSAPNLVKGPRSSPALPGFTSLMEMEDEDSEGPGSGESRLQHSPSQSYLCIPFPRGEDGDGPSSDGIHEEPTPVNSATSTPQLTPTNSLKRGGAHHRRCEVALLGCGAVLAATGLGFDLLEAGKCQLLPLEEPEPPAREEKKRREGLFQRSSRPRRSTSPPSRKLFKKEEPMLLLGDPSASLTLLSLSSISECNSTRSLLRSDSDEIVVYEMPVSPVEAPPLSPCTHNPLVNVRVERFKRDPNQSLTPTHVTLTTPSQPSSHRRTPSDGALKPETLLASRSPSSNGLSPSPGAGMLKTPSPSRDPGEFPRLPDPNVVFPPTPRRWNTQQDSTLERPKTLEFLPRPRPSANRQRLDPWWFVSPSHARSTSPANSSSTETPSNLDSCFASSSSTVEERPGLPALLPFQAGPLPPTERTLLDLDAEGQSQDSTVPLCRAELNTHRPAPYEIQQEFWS

panel of 468 kinases [7] = biological target: T7, panel of 468 kinases (Homo sapiens, UniProt O14733); details: MKK7; 1 μM; read-out: % control
T7 construct: purchased KINOMEscan (ScanMAX) service
T7 sequence (O14733 1-419): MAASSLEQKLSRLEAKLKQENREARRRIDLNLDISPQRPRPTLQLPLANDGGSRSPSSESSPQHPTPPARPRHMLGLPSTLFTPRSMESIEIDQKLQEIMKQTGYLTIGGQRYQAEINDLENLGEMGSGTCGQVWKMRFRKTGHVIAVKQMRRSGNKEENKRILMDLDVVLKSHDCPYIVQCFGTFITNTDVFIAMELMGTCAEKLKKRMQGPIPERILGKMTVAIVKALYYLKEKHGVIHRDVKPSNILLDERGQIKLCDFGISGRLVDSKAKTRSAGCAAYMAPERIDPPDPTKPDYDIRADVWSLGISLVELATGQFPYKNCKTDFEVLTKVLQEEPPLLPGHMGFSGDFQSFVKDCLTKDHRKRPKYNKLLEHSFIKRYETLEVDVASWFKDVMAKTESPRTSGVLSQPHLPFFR

panel of 468 kinases [8] = biological target: T8, panel of 468 kinases (Homo sapiens, UniProt O14920); details: IKK-beta; 1 μM; read-out: % control
T8 construct: purchased KINOMEscan (ScanMAX) service
T8 sequence (O14920 1-756): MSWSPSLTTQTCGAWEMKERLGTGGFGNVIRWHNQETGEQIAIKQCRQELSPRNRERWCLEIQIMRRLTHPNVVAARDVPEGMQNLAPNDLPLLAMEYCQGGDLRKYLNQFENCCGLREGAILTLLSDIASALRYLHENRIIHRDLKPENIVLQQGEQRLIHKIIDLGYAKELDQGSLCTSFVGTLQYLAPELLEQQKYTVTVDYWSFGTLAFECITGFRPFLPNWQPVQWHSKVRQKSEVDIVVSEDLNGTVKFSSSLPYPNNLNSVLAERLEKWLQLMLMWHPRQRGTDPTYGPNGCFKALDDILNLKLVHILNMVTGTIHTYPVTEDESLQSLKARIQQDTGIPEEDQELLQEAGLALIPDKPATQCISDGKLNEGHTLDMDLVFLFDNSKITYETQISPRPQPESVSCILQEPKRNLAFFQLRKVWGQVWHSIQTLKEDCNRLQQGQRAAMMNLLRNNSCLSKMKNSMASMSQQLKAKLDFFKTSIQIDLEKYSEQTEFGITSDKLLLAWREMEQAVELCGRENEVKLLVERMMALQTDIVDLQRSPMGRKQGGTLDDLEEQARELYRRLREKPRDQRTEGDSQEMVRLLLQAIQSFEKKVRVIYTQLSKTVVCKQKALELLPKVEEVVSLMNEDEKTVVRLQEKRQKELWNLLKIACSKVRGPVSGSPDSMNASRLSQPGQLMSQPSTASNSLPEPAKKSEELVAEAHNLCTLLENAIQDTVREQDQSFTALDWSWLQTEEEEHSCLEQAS

T1 sequence (P24723 whole entry): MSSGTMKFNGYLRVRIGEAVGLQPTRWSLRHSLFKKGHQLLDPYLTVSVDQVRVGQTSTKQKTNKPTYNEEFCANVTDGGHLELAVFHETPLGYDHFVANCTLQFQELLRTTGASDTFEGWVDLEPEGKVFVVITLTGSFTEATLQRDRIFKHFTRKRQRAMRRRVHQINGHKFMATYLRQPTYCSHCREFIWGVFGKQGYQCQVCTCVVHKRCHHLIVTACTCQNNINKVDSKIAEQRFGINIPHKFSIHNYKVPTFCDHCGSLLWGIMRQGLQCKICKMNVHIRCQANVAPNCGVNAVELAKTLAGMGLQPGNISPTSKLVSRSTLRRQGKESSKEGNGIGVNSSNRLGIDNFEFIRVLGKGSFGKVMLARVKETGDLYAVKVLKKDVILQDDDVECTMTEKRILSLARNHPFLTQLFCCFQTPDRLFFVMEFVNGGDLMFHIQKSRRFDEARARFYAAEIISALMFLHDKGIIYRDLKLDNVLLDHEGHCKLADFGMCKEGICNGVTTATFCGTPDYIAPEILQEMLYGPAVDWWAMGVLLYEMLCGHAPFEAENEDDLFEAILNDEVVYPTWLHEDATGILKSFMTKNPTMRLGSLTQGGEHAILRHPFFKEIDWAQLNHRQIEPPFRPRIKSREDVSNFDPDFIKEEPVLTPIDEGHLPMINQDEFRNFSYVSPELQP

CNc1nc(Nc2ccc(C(=O)N3CCC(N4CCOCC4)CC3)c3c2OCO3)nc2[nH]cc(Cl)c12 [Compound 75, (7-((5-chloro-4-(methylamino)-7H-pyrrolo[2,3-d]pyrimidin-2-yl)amino)benzo[d][1,3]dioxol-4-yl)(4-morpholinopiperidin-1-yl)methanone]
remaining binding at 1 µM (panel of 468 kinases [1]): 91% | remaining binding at 1 µM (panel of 468 kinases [2]): 98% | remaining binding at 1 µM (panel of 468 kinases [3]): 100% | remaining binding at 1 µM (panel of 468 kinases [4]): 65% | remaining binding at 1 µM (panel of 468 kinases [5]): 100% | remaining binding at 1 µM (panel of 468 kinases [6]): 91% | remaining binding at 1 µM (panel of 468 kinases [7]): 96% | remaining binding at 1 µM (panel of 468 kinases [8]): 96%

CNc1nc(Nc2ccc(S(=O)(=O)N3CCC(N4CCOCC4)CC3)cc2OC)nc2[nH]cc(Cl)c12 [Compound 12, 5-chloro-N2-(2-methoxy-4-((4-morpholinopiperidin-1-yl)sulfonyl)phenyl)-N4-methyl-7H-pyrrolo[2,3-d]pyrimidine-2,4-diamine]
remaining binding at 1 µM (panel of 468 kinases [1]): 97% | remaining binding at 1 µM (panel of 468 kinases [2]): 100% | remaining binding at 1 µM (panel of 468 kinases [3]): 100% | remaining binding at 1 µM (panel of 468 kinases [4]): 54% | remaining binding at 1 µM (panel of 468 kinases [5]): 100% | remaining binding at 1 µM (panel of 468 kinases [6]): 100% | remaining binding at 1 µM (panel of 468 kinases [7]): 100% | remaining binding at 1 µM (panel of 468 kinases [8]): 100%

CNc1nc(Nc2ccc(P3(=O)CCN(C4CCOCC4)CC3)cc2OC)nc2[nH]cc(Cl)c12 [Compound 77, 4-(4-((5-chloro-4-(methylamino)-7H-pyrrolo[2,3-d]pyrimidin-2-yl)amino)-3-methoxyphenyl)-1-(tetrahydro-2H-pyran-4-yl)-1,4-azaphosphinane 4-oxide]
remaining binding at 1 µM (panel of 468 kinases [1]): 100% | remaining binding at 1 µM (panel of 468 kinases [2]): 100% | remaining binding at 1 µM (panel of 468 kinases [3]): 96% | remaining binding at 1 µM (panel of 468 kinases [4]): 55% | remaining binding at 1 µM (panel of 468 kinases [5]): 64% | remaining binding at 1 µM (panel of 468 kinases [6]): 98% | remaining binding at 1 µM (panel of 468 kinases [7]): 100% | remaining binding at 1 µM (panel of 468 kinases [8]): 95%
